The results in this text go back to patent publication US10696693B2, “Fused imidazole derivatives as TGF-beta inhibitors” (Rigel Pharmaceuticals, Inc., priority 2014, dated 2020).

In experiment [1] the test system is GDF8. The experiment is described as follows: AlphaScreen SureFire p-SMAD3 (Ser423/425) assay, GDF8-stimulated cells. Format: cell-based. As to conditions: Mus musculus. The essentials: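 A SureFire AlphaScreen assay measured phosphorylation of endogenous SMAD-3 at Ser423/425 in cell lysates. Cells were treated with three-fold serially diluted compounds in DMSO for about 10 minutes, then stimulated with GDF8. After medium removal, cells were lysed in 1× Lysis Buffer (about 25 μL) with gentle shaking for 5-10 minutes.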
(In general: In Alpha technology, singlet oxygen from a donor bead excites a nearby acceptor bead.)

Experiment [2] deals with TGF-β. The experiment in a line: AlphaScreen SureFire p-SMAD3 (Ser423/425) assay, TGF-β-stimulated cells. Format: cell-based. Particulars: Mus musculus. The essentials:
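The p-SMAD-3 (Ser423/425) SureFire assay measured phosphorylation of endogenous SMAD-3 in cell lysates. Cells were plated overnight in collagen-coated plates, exposed to three-fold serially diluted compounds for about 10 minutes, then stimulated with TGFβ. Lysates (5 μL) received acceptor bead mix for 2 hours, then donor beads for 1½ hours before AlphaScreen reading.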

Where [3] appears, read: MPC-11, p-SMAD3 (Ser423/425) AlphaScreen in cell lysate, MPC11, GDF8 stimulation, read-out: GDF8: inhibition of GDF8 signaling, GDF pSMAD (MPC11).
Setting [4] is: p-SMAD3 (Ser423/425) AlphaScreen in cell lysate, MPC-11, TGF-β stimulation, read-out: TGF-β: inhibition of TGF-β signaling, TGF-β pSMAD (MPC-11).
The mark [5] stands for this setting: MPC-11, read-out: GDF8: inhibition of GDF8 signaling, GDF pSMAD (MPC11), p-SMAD3 (Ser423/425) AlphaScreen in cell lysate, GDF8 stimulation.
Where [6] appears, read: MPC-11, read-out: TGF-β: inhibition of TGF-β signaling, TGF-β pSMAD (MPC-11), p-SMAD3 (Ser423/425) AlphaScreen in cell lysate, TGF-β stimulation.

The structures appear in SMILES notation. Read-outs that look alike come from different tables or passages of the source. Bounds are passed on as bounds.

Turning to `CNC(=O)C1CCC2(CC1)Cc1nc(-c3ccc(F)cc3)c(-c3ccc4ncnn4c3)n1C2` (stereo not drawn) [Compound 78, 3′-([1,2,4]triazolo[1,5-a]pyridin-6-yl)-2′-(4-fluorophenyl)-N-methyl-5′H,7′H-spiro[cyclohexane-1,6′-pyrrolo[1,2-a]imidazole]-4-carboxamide], the IC50 in experiment [1] (setting [3]) and in experiment [2] (setting [4]) was above 1000 nM each time.

Regarding `CN(C)C(=O)C1CCC2(CC1)Cc1nc(-c3ccc(F)cc3)c(-c3ccc4ncnn4c3)n1C2` (stereo not drawn) [Compound 79, 3′-([1,2,4]triazolo[1,5-a]pyridin-6-yl)-2′-(4-fluorophenyl)-N,N-dimethyl-5′H,7′H-spiro[cyclohexane-1,6′-pyrrolo[1,2-a]imidazole]-4-carboxamide], the IC50 in experiment [1] (setting [5]) and in experiment [2] (setting [6]) was above 1000 nM throughout.

For `NC(=O)C1CCC2(CC1)Cc1nc(-c3ccc(F)cc3)c(-c3ccc4ncnn4c3)n1C2` (stereo not drawn) [Compound 80, 3′-([1,2,4]triazolo[1,5-a]pyridin-6-yl)-2′-(4-fluorophenyl)-5′H,7′H-spiro[cyclohexane-1,6′-pyrrolo[1,2-a]imidazole]-4-carboxamide], the IC50 in experiment [1] (setting [5]) and in experiment [2] (setting [6]) was above 1000 nM each time.

In the case of `Fc1ccc(-c2nc3n(c2-c2ccc4ncnn4c2)CCC3)c(F)c1Cl` [Compound 81, 6-(2-(3-chloro-2,4-difluorophenyl)-6,7-dihydro-5H-pyrrolo[1,2-a]imidazol-3-yl)-[1,2,4]triazolo[1,5-a]pyridine], the IC50 in experiment [1] (setting [5]) and in experiment [2] (setting [6]) was 100 to 1000 nM each time.

For the compound `Fc1ccc(Cl)cc1-c1nc2n(c1-c1ccc3ncnn3c1)CCC2` [Compound 82, 6-(2-(5-chloro-2-fluoro)-6,7-dihydro-5H-pyrrolo[1,2-a]imidazol-3-yl)-[1,2,4]triazolo[1,5-a]pyridine], the IC50 in experiment [1] (setting [3]) and in experiment [2] (setting [4]) was below 50 nM in each case.

In the case of `Fc1ccc(Cl)cc1-c1nc2n(c1-c1ccc3nccn3c1)CCC2` [Compound 83], the IC50 in experiment [1] (setting [3]) and in experiment [2] (setting [4]) was below 50 nM throughout.

As for `CS(=O)(=O)OCC1CCC2(CC1)Cc1nc(-c3ccc(F)cc3)c(-c3ccc4ncnn4c3)n1C2` (stereo not drawn) [Compound 84, (3′-([1,2,4]triazolo[1,5-a]pyridin-6-yl)-2′-(4-fluorophenyl)-5′H,7′H-spiro[cyclohexane-1,6′-pyrrolo[1,2-a]imidazol]-4-yl)methyl methanesulfonate], the IC50 in experiment [1] (setting [3]) and in experiment [2] (setting [4]) was above 1000 nM throughout.

For `[N-]=[N+]=NCC1CCC2(CC1)Cc1nc(-c3ccc(F)cc3)c(-c3ccc4ncnn4c3)n1C2` (stereo not drawn) [Compound 85, 3′-([1,2,4]triazolo[1,5-a]pyridin-6-yl)-4-(azidomethyl)-2′-(4-fluorophenyl)-5′H,7′H-spiro[cyclohexane-1,6′-pyrrolo[1,2-a]imidazole]], the IC50 in experiment [1] (setting [3]) and in experiment [2] (setting [4]) was above 1000 nM each time.

On to `CNCC1CCC2(CC1)Cc1nc(-c3ccc(F)cc3)c(-c3ccc4ncnn4c3)n1C2` (stereo not drawn) [Compound 86, 1-(3′-([1,2,4]triazolo[1,5-a]pyridin-6-yl)-2′-(4-fluorophenyl)-5′H,7′H-spiro[cyclohexane-1,6′-pyrrolo[1,2-a]imidazol]-4-yl)-N-methylmethanamine], for which the IC50 in experiment [1] (setting [3]) and in experiment [2] (setting [4]) was above 1000 nM each time.

Take `CN(C)CC1CCC2(CC1)Cc1nc(-c3ccc(F)cc3)c(-c3ccc4ncnn4c3)n1C2` (stereo not drawn) [Compound 87, 1-(3′-([1,2,4]triazolo[1,5-a]pyridin-6-yl)-2′-(4-fluorophenyl)-5′H,7′H-spiro[cyclohexane-1,6′-pyrrolo[1,2-a]imidazol]-4-yl)-N,N-dimethylmethanamine]: the IC50 in experiment [1] (setting [3]) and in experiment [2] (setting [4]) was above 1000 nM each time.

In the case of `O=C(OCc1ccccc1)N1CCC2Cn3c(nc(-c4ccc(F)cc4)c3-c3ccc4ncnn4c3)C2C1` (stereo not drawn) [Compound 88, benzyl 3-([1,2,4]triazolo[1,5-a]pyridin-6-yl)-2-(4-fluorophenyl)-5,5a,6,7,9,9a-hexahydro-8H-imidazo[1′,2′:1,2]pyrrolo[3,4-c]pyridine-8-carboxylate], the IC50 in experiment [1] (setting [3]) and in experiment [2] (setting [4]) was above 1000 nM throughout.

For the compound `CN1CCC2Cn3c(nc(-c4ccc(F)cc4)c3-c3ccc4ncnn4c3)C2C1` (stereo not drawn) [Compound 89, 3-([1,2,4]triazolo[1,5-a]pyridin-6-yl)-2-(4-fluorophenyl)-8-methyl-5a,6,7,8,9,9a-hexahydro-5H-imidazo[1′,2′:1,2]pyrrolo[3,4-c]pyridine], the IC50 in experiment [1] (setting [3]) and in experiment [2] (setting [4]) was above 1000 nM in each case.

Regarding `Cc1ccc(Cl)cc1-c1nc2n(c1-c1ccc3ncnn3c1)CCC2` [Compound 90, 6-(2-(5-chloro-2-methyl)-6,7-dihydro-5H-pyrrolo[1,2-a]imidazol-3-yl)-[1,2,4]triaolo[1,5-a]pyridine], the IC50 in experiment [1] (setting [3]) and in experiment [2] (setting [4]) was 100 to 1000 nM throughout.

Consider `Cc1ccc(-c2ccc3ncnn3c2)cc1-c1nc2n(c1-c1ccc3ncnn3c1)CCC2` [Compound 91, 6-(2-(5-([1,2,4]triazolo[1,5-a]pyridin-6-yl)-2-methylphenyl)-6,7-dihydro-5H-pyrrolo[1,2-a]imidazol-3-yl)-[1,2,4]triazolo[1,5-a]pyridine], for which the IC50 in experiment [1] (setting [3]) and in experiment [2] (setting [4]) was above 1000 nM in each case.

`Clc1ccc(Cl)c(-c2nc3n(c2-c2ccc4ncnn4c2)CCC3)c1` [Compound 92, 6-(2-(2,5-dichlorophenyl)-6,7-dihydro-5H-pyrrolo[1,2-a]imidazol-3-yl)-[1,2,4]triazolo[1,5-a]pyridine]: the IC50 in experiment [1] (setting [5]) lay in the range of 50 to 100 nM; in experiment [2] (setting [6]), 100 to 1000 nM.

Take `Clc1ccc(Cl)c(-c2nc3n(c2-c2ccc4nccn4c2)CCC3)c1` [Compound 93, 6-(2-(2,5-dichlorophenyl)-6,7-dihydro-5H-pyrrolo[1,2-a]imidazol-3-yl)imidazo[1,2-a]pyridine]: the IC50 in experiment [1] (setting [5]) is below 50 nM; in experiment [2] (setting [6]), 50 to 100 nM.

In the case of `Fc1cc(F)c(-c2nc3n(c2-c2ccc4ncnn4c2)CCC3)cc1Cl` [Compound 94, 6-(2-(5-chloro-2,4-difluoro)-6,7-dihydro-5H-pyrrolo[1,2-a]imidazol-3-yl)-[1,2,4]triazolo[1,5-a]pyridine], the IC50 in experiment [1] (setting [3]) and in experiment [2] (setting [4]) was below 50 nM throughout.

On to `COc1ccc(-c2nc3n(c2-c2ccc4ncnn4c2)CCC3)cc1` [Compound 95, 6-(2-(4-methoxyphenyl)-6,7-dihydro-5H-pyrrolo[1,2-a]imidazol-3-yl)-[1,2,4]triazolo[1,5-a]pyridine], for which the IC50 in experiment [1] (setting [5]) and in experiment [2] (setting [6]) was above 1000 nM throughout.

For `Cc1ccc(F)c(-c2nc3n(c2-c2ccc4ncnn4c2)CCC3)c1` [Compound 96, 6-(2-(2-fluoro-5-methylphenyl)-6,7-dihydro-5H-pyrrolo[1,2-a]imidazol-3-yl)-[1,2,4]triazolo[1,5-a]pyridine], the IC50 in experiment [1] (setting [3]) and in experiment [2] (setting [4]) was below 50 nM throughout.

With `Fc1cc(F)c(F)c(-c2nc3n(c2-c2cc4cnccc4s2)CCC3)c1` [Compound 98, 2-(2-(2,3,5-trifluorophenyl)-6,7-dihydro-5H-pyrrolo[1,2-a]imidazol-3-yl)thieno[3,2-c]pyridine], the IC50 in experiment [1] (setting [3]) and in experiment [2] (setting [4]) was 100 to 1000 nM each time.

As for `Fc1cc(F)c(-c2nc3n(c2-c2cc4cnccc4s2)CCC3)cc1F` [Compound 99, 2-(2-(2,4,5-trifluorophenyl)-6,7-dihydro-5H-pyrrolo[1,2-a]imidazol-3-yl)thieno[3,2-c]pyridine], the values for the IC50 in experiment [1] (setting [3]) and in experiment [2] (setting [4]) were 50 to 100 nM and 100 to 1000 nM, respectively.
